These results are taken from US7772263B2, “Compounds for the treatment of inflammatory disorders” (Schering Corporation, priority 2006, dated 2010).

T1 sequence (P78536 215-477 S266A/N452Q limits assumed): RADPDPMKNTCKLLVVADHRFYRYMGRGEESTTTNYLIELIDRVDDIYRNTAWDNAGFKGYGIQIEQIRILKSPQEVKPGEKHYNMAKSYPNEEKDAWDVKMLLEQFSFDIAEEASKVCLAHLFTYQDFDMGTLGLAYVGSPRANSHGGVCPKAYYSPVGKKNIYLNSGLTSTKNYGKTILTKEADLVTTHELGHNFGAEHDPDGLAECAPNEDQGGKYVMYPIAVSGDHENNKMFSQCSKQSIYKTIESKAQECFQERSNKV

The first experiment has as its target T1, purified catalytic domain of recombinant human TACE (rhTACEc) (Homo sapiens, UniProt P78536, N452Q/S266A).
T1 construct: rhTACEc, Residue 215 to 477 with two mutation (S266A and N4520) and a 6×His tail; 6xHis (C); made in house; host or cells: baculovirus/Hi5 insect cells
Put plainly: TACE kinetic assay, cleavage of internally quenched fluorescent peptide substrate SPDL-3. The settings on record: TACE inhibition, Table 1001; read-out: Ki Rating. It counts as biochemical.
In the case of `COc1ccc2c(c1)C(=O)N(C[C@@]1(C#Cc3ccc(F)c(C#N)c3)NC(=O)NC1=O)C2` [Compound 906], the Ki was < 5 nM.
Regarding `COc1ccc2c(c1)C(=O)N(C[C@@]1(C#Cc3ccc(OC)c(F)c3)NC(=O)NC1=O)C2` [Compound 907], the inhibition constant Ki was < 5 nM.
Same read-out and setting: next, `COc1ccc2c(c1)C(=O)N(C[C@@]1(C#Cc3cc(F)cc(F)c3OC)NC(=O)NC1=O)C2` [Compound 908]: < 5 nM.
`COc1ccc2c(c1)C(=O)N(C[C@@]1(C#Cc3ccc(-c4ccccn4)s3)NC(=O)NC1=O)C2` [Compound 909]: the inhibition constant Ki was < 5 nM.
Consider `COc1ccc2c(c1)C(=O)N(C[C@@]1(C#Cc3nc4ccccc4s3)NC(=O)NC1=O)C2` [Compound 910], for which the Ki is < 5 nM.
Turning to `COc1ccc2c(c1)C(=O)N(C[C@@]1(C#Cc3c(C)n[nH]c3C)NC(=O)NC1=O)C2` [Compound 911], the Ki was < 5 nM.
As for `COc1ccc2c(c1)C(=O)N(C[C@@]1(C#Cc3c(N)ccc4scnc34)NC(=O)NC1=O)C2` [Compound 912], the inhibition constant (Ki) is < 5 nM.
The same measure, in the same setting: with `COc1ccc2c(c1)C(=O)N(C[C@@]1(C#Cc3ncnc4c3ncn4C(C)C)NC(=O)NC1=O)C2` [Compound 913] the figure was < 5 nM; with `COc1ccc2c(c1)C(=O)N(C[C@@]1(C#Cc3ncnc4[nH]cnc34)NC(=O)NC1=O)C2` [Compound 914], < 5 nM; with `COC(=O)c1ccc(C#C[C@]2(CN3Cc4ccc(OC)cc4C3=O)NC(=O)NC2=O)o1` [Compound 915], < 5 nM.
With `COc1ccc2c(c1)C(=O)N(C[C@@]1(C#Cc3ccc(C(N)=O)o3)NC(=O)NC1=O)C2` [Compound 916], the Ki is < 5 nM.
The same measure, in the same setting: with `COc1ccc2c(c1)C(=O)N(C[C@@]1(C#Cc3ccc(C(=O)O)o3)NC(=O)NC1=O)C2` [Compound 917] the figure was < 5 nM; with `COc1ccc2c(c1)C(=O)N(C[C@@]1(C#Cc3cnc(C)n3C)NC(=O)NC1=O)C2` [Compound 918], < 5 nM.
The same measure, in the same setting: with `CCc1cc(C#C[C@]2(CN3Cc4ccc(OC)cc4C3=O)NC(=O)NC2=O)cc2sc(N)nc12` [Compound 919] the figure was < 5 nM; with `COc1ccc2c(c1)C(=O)N(C[C@@]1(C#Cc3cnccc3N)NC(=O)NC1=O)C2` [Compound 920], < 5 nM; with `O=C1NC(=O)[C@@](C#Cc2cc(F)cc(F)c2)(CN2Cc3ccc(OC(F)F)cc3C2=O)N1` [Compound 922], < 5 nM.
As for `COC(=O)c1ncccc1C#C[C@]1(CN2Cc3ccc(OC)cc3C2=O)NC(=O)NC1=O` [Compound 924], the Ki is < 5 nM.
As for `COc1ccc2c(c1)C(=O)N(C[C@@]1(C#Cc3cccnc3C(=O)O)NC(=O)NC1=O)C2` [Compound 925], the Ki was < 5 nM.
`COc1ccc2c(c1)C(=O)N(C[C@@]1(C#Cc3ccncc3N)NC(=O)NC1=O)C2` [Compound 926]: the inhibition constant (Ki) lay in the range of 5 to 25 nM.
`COc1ccc2c(c1)C(=O)N(C[C@@]1(C#Cc3ncccc3N)NC(=O)NC1=O)C2` [Compound 928]: the Ki is < 5 nM.
Still for that read-out and setting: with `COc1ccc2c(c1)C(=O)N(C[C@@]1(C#Cc3cccnc3N)NC(=O)NC1=O)C2` [Compound 930] the figure was < 5 nM; with `COc1ccc2c(c1)C(=O)N(C[C@@]1(C#Cc3cccc(C(C)C)c3)NC(=O)NC1=O)C2` [Compound 931], < 5 nM; with `COc1ccc2c(c1)C(=O)N(C[C@@]1(C#Cc3cnc4ncccc4c3)NC(=O)NC1=O)C2` [Compound 932], < 5 nM.
`COc1ccc2c(c1)C(=O)N(C[C@@]1(C#Cc3ccc4ncccc4c3)NC(=O)NC1=O)C2` [Compound 933]: the inhibition constant (Ki) is < 5 nM.
Same read-out and setting: with `COc1ccc2c(c1)C(=O)N(C[C@@]1(C#Cc3cc(C(F)(F)F)cc(C(F)(F)F)c3)NC(=O)NC1=O)C2` [Compound 934] the figure was < 5 nM; with `COc1ccc2c(c1)C(=O)N(C[C@@]1(C#Cc3ccc(OC(F)F)cc3)NC(=O)NC1=O)C2` [Compound 937], < 5 nM; with `COc1ccc2c(c1)C(=O)N(C[C@@]1(C#Cc3cc(F)c(Cl)c(F)c3)NC(=O)NC1=O)C2` [Compound 938], < 5 nM.
On the same count and under the same terms, next, `COc1ccc2c(c1)C(=O)N(C[C@@]1(C#Cc3ccc(C#N)c(F)c3)NC(=O)NC1=O)C2` [Compound 939]: < 5 nM; `COc1ccc2c(c1)C(=O)N(C[C@@]1(C#Cc3ccc4ccn(C)c4n3)NC(=O)NC1=O)C2` [Compound 940]: < 5 nM.
On the same count and under the same terms, with `COc1ccc2c(c1)C(=O)N(C[C@@]1(C#Cc3cnc4c(ccn4C)c3)NC(=O)NC1=O)C2` [Compound 941] the figure was < 5 nM; with `COc1ccc2c(c1)C(=O)N(C[C@@]1(C#Cc3cnc4nc(O)ccc4c3)NC(=O)NC1=O)C2` [Compound 942], < 5 nM.
In the case of `O=C1NC(=O)[C@@](C#Cc2cccnc2)(CN2Cc3ccc(OC(F)F)cc3C2=O)N1` [Compound 943], the inhibition constant Ki was < 5 nM.
For the molecule `COc1ccc2c(c1)C(=O)N(C[C@@]1(C#Cc3cnc4nc(N)c(C#N)cc4c3)NC(=O)NC1=O)C2` [Compound 944], the inhibitory constant (Ki) is < 5 nM.
For `COc1ccc2c(c1)C(=O)N(C[C@@]1(C#Cc3cccc(S(N)(=O)=O)c3)NC(=O)NC1=O)C2` [Compound 945], the Ki is < 5 nM.
Take `COc1ccc2c(c1)C(=O)N(C[C@@]1(C#Cc3ccc(S(N)(=O)=O)cc3)NC(=O)NC1=O)C2` [Compound 946]: the inhibition constant (Ki) is < 5 nM.
As for `COc1ccc2c(c1)C(=O)N(C[C@@]1(C#Cc3ccccc3S(N)(=O)=O)NC(=O)NC1=O)C2` [Compound 947], the Ki is < 5 nM.
As for `COc1ccc2c(c1)C(=O)N(C[C@@]1(C#Cc3cn(C)c(C)n3)NC(=O)NC1=O)C2` [Compound 948], the inhibition constant Ki was < 5 nM.
Still for that read-out and setting: with `COc1ccc2c(c1)C(=O)N(C[C@@]1(C#Cc3cnc4[nH]ccc4c3)NC(=O)NC1=O)C2` [Compound 949] the figure was < 5 nM; with `COc1ccc2c(c1)C(=O)N(C[C@@]1(C#Cc3cc(OC)cc4sc(N)nc34)NC(=O)NC1=O)C2` [Compound 950], < 5 nM; with `COc1ccc2c(c1)C(=O)N(C[C@@]1(C#Cc3ccc4nccc(OC)c4c3)NC(=O)NC1=O)C2` [Compound 951], < 5 nM.
As for `COc1ccc2c(c1)C(=O)N(C[C@@]1(C#Cc3nccc4cc[nH]c34)NC(=O)NC1=O)C2` [Compound 952], the Ki is < 5 nM.
Same read-out and setting: next, `COc1ccc2c(c1)C(=O)N(C[C@@]1(C#Cc3cncc4cc[nH]c34)NC(=O)NC1=O)C2` [Compound 953]: < 5 nM; `CNC(=O)c1ccc(C#C[C@]2(CN3Cc4ccc(OC)cc4C3=O)NC(=O)NC2=O)o1` [Compound 954]: < 5 nM.
For the molecule `COc1ccc2c(c1)C(=O)N(C[C@@]1(C#Cc3cncc4cccnc34)NC(=O)NC1=O)C2` [Compound 955], the Ki was < 5 nM.
Consider `COC(=O)c1ccc2cncc(C#C[C@]3(CN4Cc5ccc(OC)cc5C4=O)NC(=O)NC3=O)c2n1` [Compound 956], for which the inhibition constant Ki was < 5 nM.
With `COc1ccc2c(c1)C(=O)N(C[C@@]1(C#Cc3cncc4ccc(C(N)=O)nc34)NC(=O)NC1=O)C2` [Compound 957], the inhibition constant (Ki) is < 5 nM.
With `CNC(=O)c1ccc2cncc(C#C[C@]3(CN4Cc5ccc(OC)cc5C4=O)NC(=O)NC3=O)c2n1` [Compound 958], the inhibitory constant (Ki) is < 5 nM.
In the case of `COc1ccc2c(c1)C(=O)N(C[C@@]1(C#Cc3cncc4ccc(C(=O)O)nc34)NC(=O)NC1=O)C2` [Compound 959], the Ki was < 5 nM.
With `COc1ccc2c(c1)C(=O)N(C[C@@]1(C#Cc3cnc4[nH]cnc4c3)NC(=O)NC1=O)C2` [Compound 960], the inhibition constant (Ki) was < 5 nM.
With `COc1ccc2c(c1)C(=O)N(C[C@@]1(C#Cc3cnc4[nH]c(C)nc4c3)NC(=O)NC1=O)C2` [Compound 961], the inhibitory constant (Ki) was < 5 nM.
For `COc1ccc2c(c1)C(=O)N(C[C@@]1(C#Cc3cc4nc[nH]c4nc3C)NC(=O)NC1=O)C2` [Compound 962], the Ki was < 5 nM.
Consider `COc1ccc2c(c1)C(=O)N(CC1(C#Cc3ccc4ncsc4c3)NC(=O)NC1=O)C2` (stereo not drawn) [Compound 963], for which the inhibition constant Ki is < 5 nM.
The same measure, in the same setting: with `COc1ccc2c(c1)C(=O)N(C[C@]1(C#Cc3ccccc3C(C)C)NC(=O)NC1=O)C2` [Compound 964] the figure was 5 to 25 nM; with `COc1ccc2c(c1)C(=O)N(C[C@]1(C#Cc3nc4ccccc4s3)NC(=O)NC1=O)C2` [Compound 965], 25 to 100 nM.
Same read-out and setting: with `COc1ccc2c(c1)C(=O)N(C[C@]1(C#Cc3cnc4ncccc4c3)NC(=O)NC1=O)C2` [Compound 966] the figure was 25 to 100 nM; with `COc1ccc2c(c1)C(=O)N(C[C@]1(C#Cc3cccc(C(C)C)c3)NC(=O)NC1=O)C2` [Compound 967], 25 to 100 nM; with `COc1ccc2c(c1)C(=O)N(C[C@]1(C#Cc3ccc4ncccc4c3)NC(=O)NC1=O)C2` [Compound 968], 25 to 100 nM.
With `O=C1NC(=O)C(C#Cc2cc(F)cc(F)c2)(CN2Cc3ccc(OC(F)F)cc3C2=O)N1` (stereo not drawn) [Compound 969], the inhibition constant Ki was < 5 nM.
For the molecule `O=C1NC(=O)[C@](C#Cc2cc(F)cc(F)c2)(CN2Cc3ccc(OC(F)F)cc3C2=O)N1` [Compound 970], the Ki was > 100 nM.
Same read-out and setting: with `O=C1NC(=O)C(C#Cc2ccc(F)cc2F)(CN2Cc3ccc(OC(F)F)cc3C2=O)N1` (stereo not drawn) [Compound 971] the figure was < 5 nM.
Same read-out and setting: next, `COc1ccc2c(c1)C(=O)N(C[C@@]1(C#Cc3ccc(S(=O)(=O)O)cc3)NC(=O)NC1=O)C2` [Compound 973]: < 5 nM.
Same read-out and setting: with `COc1ccc2c(c1)C(=O)N(C[C@@]1(C#Cc3ccccc3)NC(=O)NC1=O)C2` [Compound 1002] the figure was < 5 nM.
As to `O=C1NC(=O)[C@@](C#Cc2cc(F)cc(F)c2)(CN2Cc3ccc(Cl)cc3C2=O)N1` [Compound 1003B], the inhibitory constant (Ki) is < 5 nM.
For `O=C1NC(=O)[C@@](C#Cc2cccc(F)c2)(CN2Cc3ccc(Cl)cc3C2=O)N1` [Compound 1003C], the Ki is < 5 nM.

The same experiment, now with this note: rhTACEc 70 pM, 30 μM SPDL-3, 90 min pre-incubation at 25° C.; read-out: Ki (nM), TACE inhibitory activity.
For `COc1ccc2c(c1)C(=O)N(C[C@@]1(C#Cc3cccnc3N)NC(=O)NC1=O)C2` [Compound 930], the Ki was 0.56 nM.
Still for that read-out and setting: next, `COc1ccc2c(c1)C(=O)N(C[C@@]1(C#Cc3ccc4scnc4c3)NC(=O)NC1=O)C2` [Compound 972]: 0.12 nM.

The Ki is the equilibrium dissociation constant of an inhibitor or competing ligand from its target.
